“Also recorded” adds a separate entry of the source. Read-outs that look alike come from different tables or passages of the source.
Assays:
[1] = daily prophylactic dose, four patients; cited from earlier work
human P-selectin = biological target: T1, human P-selectin (Homo sapiens, UniProt P16109); assay: Binding to P-selectin analyzed by optical biosensor (surface plasmon resonance, Biacore 2000); details: read-out: apparent KD
T1 construct: Fc (IgG Fc fusion partner)
Procedure: The heparin derivatives were desalted and transferred into running buffer using desalting columns. The molar concentrations of the eluates were determined by analysis of UA content (mg/ml) using the phenylphenol method (Blumenkrantz et al. 1973 Anal Biochem 54, 484-9). […] The data was analyzed using BIAevaluation software, version 3. To prepare the biosensor assay, the capturing affinity purified goat anti-human IgG Fc antibody was immobilized onto a carboxymethyl dextran chip. The antibody was injected at a concentration of 50 μg/ml in 50 mM sodium acetate buffer, pH 5.0 for 12 min at […] resulting in a final response of approximately 16,200 response units (RU) in flow cell 1 and 13,400 RU in flow cell 2. Remaining activated groups were blocked with an injection of ethanolamine-HCl. The P-selectin/Fc chimera was captured onto the antibody surface in flow cell 2 (Bachelet L. et al. 2009, Biochim et Biophys Acta 1790, 1416), by injecting the molecule at a concentration of 35 ug/mL, using running buffer (10 mM Hepes, 150 mM NaCl, 1 mM CaCl2, 0.005% Tween-20, pH 7.4, filtered 0.02 μm) in the mobile phase. […] The binding of different heparin derivatives to P-selectin was analyzed using running buffer at 20 μl/min. After the association and dissociation phase of each sample, regeneration of the surface was performed using running buffer containing 0.8 M NaCl. Data from the reference surface was subtracted from the data from the P-selectin surface. Stability of the P-selectin surface was verified by measuring the response from injections of 0.1 mg/mL heparin in the beginning and the end of each experiment.
The response data at steady-state was plotted against the concentration (data not shown). The data was analyzed using non-linear regression, assuming 1:1 binding. […] The peak value (Mp) was used instead of the (higher) Mw value when calculating the molar concentrations of UFH.

[2] = APTT in citrate plasma of dosed rats; assay type: in vivo, Sprague-Dawley rats; details: i.v. dosing, heparin = 1
Procedure: (§1) Test procedures were as follows:
Citrate stabilized plasma was prepared from the blood.
(§2) Saline: (Negative Control) • 3.

[3] = Bleeding time after tail incision in rats; assay type: in vivo, Sprague-Dawley rats; details: for Estimated equipotent doses with respect to effects on bleeding time, normalized vs. heparin: rats, i.v. dosing, heparin = 1
Procedure: as §1
The incision was 9 mm long and 1 mm deep and was standardized using a template device. Blood was blotted from the incision until bleeding stopped. The time during which visible bleeding could be observed was measured, for up to 25 minutes. The longer the bleeding time, the more pronounced the anti-coagulant effects of the administered agent.
as §2

factor IIa [4] = biological target: T2, factor IIa (Homo sapiens, UniProt P00734+P01008); details: comparison value; cited from earlier work
factor Xa [5] = details: comparison value; cited from earlier work
[6] = cited from earlier work
[7] = system: SS RBC adhesion to endothelial cells treated with IL-13 and histamine; assay: In vitro sickle red blood cell adhesion to HUVECs in flow chamber; assay type: cell-based, human; details: for Inhibition of SS RBC adhesion to endothelial cells (overall): HUVECs stimulated with IL-13 and histamine
Procedure: Primary HUVECs (passage 4 only) were cultured to confluency on gelatin-coated slides in […] basal medium 2 (EBM2; Clonetics, Walkersville, Md.) supplemented with endothelial growth medium 2 (EGM2; Clonetics, Walkersville, Md.). For each assay, a gelatin coated slide with HUVECs grown to confluence was mounted inside a graduated height flow chamber. Both untreated and IL-13/histamine-stimulated slides were initially studied with each SS RBC sample. Subsequent experiments then compared adhesion with and without potential inhibitors of adhesion.
Human blood samples from patients homozygous for hemoglobin S were collected into citrate tubes.
In vitro studies of cell adhesion exposed to flowing conditions represent in vivo events, as compared to adhesion assays in which cells are simply allowed to incubate overlaid on a chemical or cellular substrate (e.g. laminin or endothelial cells) and then washed off by either non-controlled forces (e.g. pipette washes) or controlled forces (e.g. rotary motion devices). Flow chambers can produce either a constant shear stress throughout the chamber or a variable shear stress, produced by creating a variable height for the chamber.
Surface expression of P-selectin on IL-13 and histamine stimulated and unstimulated endothelial cells (HUVECs) were tested by flow cytometry. Measurement of the ability of SS RBC to adhere to these endothelial cells was performed in flow chambers. Negative control experiments included untreated endothelial cells, so that SS RBC adhesion to treated and untreated cells could be compared.
Multiple dose-finding experiments were conducted.

factor Xa [8] = details: measured values on the produced DF02
[9] = system: SS RBC adhesion to the endothelium
Text: These experiments utilize a previously described animal model (Zennadi et al. Blood 2007), in which window chambers are first implanted into the flanks of nude mice. Three to five days later, human normal or sickle red cells are infused into the mouse (usually through the tail vein) pre-treated with TNF-α (to induce inflammation and upregulate P-selectin expression); mice treated with vehicle only may be studied as controls. Female mice (nu−/nu−) 8-12 weeks in age from Jackson Laboratories, Bar Harbor, Me., were used to perform experiments described.
RBCs to be infused are pre-labelled with a fluorescent dye. The cells' adhesion may then be observed in subdermal blood vessels visible through the previously implanted window chambers. […] In addition, in some of these experiments, blood samples were drawn during the observation period in order to quantitate specific variables, such as cell survival. This model has the great advantages of providing direct visualization of cells in the context of whole blood and of allowing circulation of transfused cells under normal circulatory pressures.

factor IIa [10] = biological target: T2, factor IIa; details: measured values on the produced DF02
[11] = steady-state response, non-linear regression assuming 1:1 binding, P-selectin/Fc chimera captured on chip
[12] = injected before and after induction of vaso-occlusion

T1 sequence (P16109 with tags, fused parts or gaps limits assumed): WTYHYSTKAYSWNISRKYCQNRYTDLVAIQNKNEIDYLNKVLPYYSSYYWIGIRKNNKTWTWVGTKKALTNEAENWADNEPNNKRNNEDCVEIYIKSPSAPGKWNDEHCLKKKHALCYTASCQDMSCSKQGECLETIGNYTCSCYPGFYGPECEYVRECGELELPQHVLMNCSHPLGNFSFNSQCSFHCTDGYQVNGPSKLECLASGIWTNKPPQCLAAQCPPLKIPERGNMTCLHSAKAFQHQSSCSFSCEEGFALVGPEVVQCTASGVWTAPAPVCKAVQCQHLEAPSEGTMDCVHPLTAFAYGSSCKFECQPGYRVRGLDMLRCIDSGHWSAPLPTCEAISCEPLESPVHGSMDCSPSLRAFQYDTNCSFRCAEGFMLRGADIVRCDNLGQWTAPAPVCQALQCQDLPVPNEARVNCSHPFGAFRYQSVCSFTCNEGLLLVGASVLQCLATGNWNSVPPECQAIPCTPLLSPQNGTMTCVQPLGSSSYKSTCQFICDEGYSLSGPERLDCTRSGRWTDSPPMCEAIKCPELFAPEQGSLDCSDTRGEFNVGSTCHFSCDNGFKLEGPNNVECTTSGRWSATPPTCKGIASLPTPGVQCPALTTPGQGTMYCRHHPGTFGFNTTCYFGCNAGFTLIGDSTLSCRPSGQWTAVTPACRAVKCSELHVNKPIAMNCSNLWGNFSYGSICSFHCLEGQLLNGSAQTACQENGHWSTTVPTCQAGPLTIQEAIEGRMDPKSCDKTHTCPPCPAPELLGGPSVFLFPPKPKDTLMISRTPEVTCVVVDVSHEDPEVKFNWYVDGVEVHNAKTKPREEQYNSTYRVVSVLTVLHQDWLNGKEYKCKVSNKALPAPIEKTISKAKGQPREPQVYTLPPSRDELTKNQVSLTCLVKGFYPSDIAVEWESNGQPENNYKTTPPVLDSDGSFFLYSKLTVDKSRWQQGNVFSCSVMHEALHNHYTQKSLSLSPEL

In the case of Heparin Sodium, the “Pain and days at hospital” value [1] is given as “pain reduction and fewer days at hospital”, the Kd (human P-selectin; [11]) is given as 0.2 µM and the “Estimated equipotent doses with respect to effects on APTT, normalized vs. heparin” value [2] is given as 1. For the same substance, the “Anti-coagulant effect (bleeding time and coagulation parameters)” value (shortened to “Anti-coagulant effect”) ([3]; adult rats, i.v.) was “profound dose-related effects on all parameters investigated”, the “Estimated equipotent doses with respect to effects on bleeding time, normalized vs. heparin” value [3] was 1 and the “Corresponding value of specific anticoagulant activity (anti-factor IIa)” value (factor IIa [4]) was “at least 180 IU/mg”. The “Corresponding value of specific anticoagulant activity (anti-factor Xa)” value (factor Xa [5]) was “at least 180 IU/mg”.

In the case of Tinzaparin natrium, the Bleeding events ([6]; clinical study) is given as “several cases of bleeding events”, the Duration of hospitalization ([6]; sickle VOC) is given as “significantly shortened” and the “Duration of the most-severe pain scores” value ([6]; sickle VOC) is given as “significantly shortened”. For the same substance, the Kd (human P-selectin; [11]) was 4 µM and the “Inhibition of SS RBC adhesion to endothelial cells (overall)” value [7] was “quite effective in reducing SS RBC adhesion”.

In the case of sevuparin sodium [DF02], the antiXa activity (factor Xa [8]) is reported as “less than 10 IU/mg”, the Kd (human P-selectin) is reported as 0.7 µM and the “Estimated equipotent doses with respect to effects on APTT, normalized vs. heparin” value [2] is reported as 30-40. The “Vessel occupancy, decrease” value ([9]; as compared to a saline injection) was 50%, the “Effect on adhered SS-RBC” value [9, 12] was “inhibition and reversal of adhered SS-RBC” and the “Effect on blood flow” value [9, 12] was “partial normalization of the blood flow”. For the same substance, the “Number of vessels that reached a normalized blood flow” value ([9]; mouse, in vivo) was “dose dependent effect”, the antiIIa activity (factor IIa [10]) was “less than 10 IU/mg” and the “Anti-coagulant effect” value ([3]; adult rats, i.v.) was “reduced anti-coagulant effect”. The “Anti-coagulant effect” value ([3]; juvenile rats of age 14±1 days) was “reduced anti-coagulant effect”, the “Estimated equipotent doses with respect to effects on bleeding time, normalized vs. heparin” value [3] was 30-50 and the “Effect on SS RBC adhesion” value ([7]; 100 μg/ml) was “appeared to inhibit adhesion as much as did higher concentrations; also recorded: easily detectable”. The “Inhibition of SS RBC adhesion compared to tinzaparin” value ([7]; 400 μg/ml, most samples) was “equivalent to the same concentration of tinzaparin”, the “Effect on SS RBC adhesion” value ([7]; 10 and 50 μg/ml) was “little effect” and the “Inhibition of SS RBC adhesion to endothelial cells (overall)” value [7] was “able to inhibit SS RBC adhesion”. The “Effect on PT” value (adult rats) was “too weak to allow for comparative estimates” and the “Effect on PT” value (juvenile rats) was “weak”.

Source: patent US9480702B2, “Use of chemically modified heparin derivates in sickle cell disease” (DILAFORETTE AB, priority 2011, dated 2016)
